Results: PubChem BioAssay (NCI)
Several values for one entry are separate records, joined by “and”; a condition that tells them apart may be missing. Identical values can stand only once.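 Five concentrations, 48 hours, 96-well plates. GI50: concentration for 50% inhibition of growth. At the TGI there is no net growth.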

Experiments:
Test in all cases: inhibition of tumour cell growth, NCI panel, 48 h
UO-31 renal = test system: UO-31 renal
U251 CNS = test system: U251 CNS
KM20L2 colon = test system: KM20L2 colon
LXFL 529 NSCLC = test system: LXFL 529 NSCLC
DMS 273 small cell lung = test system: DMS 273 small cell lung
DMS 114 small cell lung = test system: DMS 114 small cell lung
M19-MEL melanoma = test system: M19-MEL melanoma
HOP-18 NSCLC = test system: HOP-18 NSCLC
SNB-78 CNS = test system: SNB-78 CNS
XF 498 CNS = test system: XF 498 CNS
DLD-1 colon = test system: DLD-1 colon

For CC(=O)OC1COC(n2c(N)c(C#N)c(C)c(C#N)c2=S)C(OC(C)=O)C1OC(C)=O (centres undefined), the TGI (UO-31 renal) was > 100 µM.

In the case of CCOC(=O)n1cncc1CC(NC(=O)Cc1c(C(=O)C=C(C)C)[nH]c2ccccc12)C(=O)OC (centres undefined), the TGI (U251 CNS) is reported as 44.9 µM and the TGI (UO-31 renal) is reported as 32.3 µM.

In the case of O=C1CCCC2=C1CC1=C(CCCC1=O)N2c1cccc2ccccc12, the TGI (U251 CNS) is reported as > 100 µM and the TGI (UO-31 renal) is reported as > 100 µM.

In the case of CC(C)CC1c2[nH]c3ccccc3c2C[C@H]2C(=O)NC(CCC(=O)OC(C)(C)C)C(=O)N12 (some centres undefined), the TGI (U251 CNS) is reported as > 100 µM and the TGI (UO-31 renal) is reported as > 100 µM.

In the case of CC(C)/C=N\n1c(N)c(C#N)c(C#N)c1C(C)C, the TGI (U251 CNS) is reported as > 100 µM and the TGI (UO-31 renal) is reported as 64.2 µM.

For C[Si](C)(C)OC1c2[nH]c3ccccc3c2CN2C(=O)CCC12 (centres undefined), the TGI (U251 CNS) was > 100 µM and the TGI (UO-31 renal) was > 100 µM.

In the case of C[C@]12CC(c3ccccc3O1)C(C(=O)NC13CC4CC(CC(C4)C1)C3)C(=O)N2 (some centres undefined), the TGI (U251 CNS) is reported as > 100 µM and the TGI (UO-31 renal) is reported as 44.3 µM.

For Cn1c2nc3ccccc3c-2cc2ccccc21, the GI50 (U251 CNS) was 4.17 µM and 8.75 µM, the TGI (U251 CNS) was > 53.5 µM and 32.4 µM and the GI50 (UO-31 renal) was 2.6 µM and 5.47 µM. For the same molecule, the TGI (UO-31 renal) was 11.6 µM and 37.7 µM.

For N=C1C(=N)c2ccccc2-c2ccccc21, the TGI (U251 CNS) was 2.63 µM and the TGI (UO-31 renal) was 2.96 µM.

With N#CS/C(Cl)=C(/C(Cl)=C(Cl)Cl)[N+](=O)[O-] the TGI (U251 CNS) was > 100 µM and the TGI (UO-31 renal) was > 100 µM.

CC(=O)Nc1ccc2c(C)c3c4ccccc4n(C)c3nc2n1 was tested, and the TGI (UO-31 renal) was 32.3 µM.

With CC1=C(OC2OC(CO)C(O)C(O)C2O)C(=O)C[C@H]2C1=CC[C@@H]1[C@@]2(C)C(=O)C[C@]2(C)[C@@H]([C@@](C)(O)C(=O)CCC(C)(C)O)[C@H](O)C[C@@]12C (some centres undefined) the TGI (U251 CNS) was > 100 µM and the TGI (UO-31 renal) was > 100 µM.

COc1cc2[nH]c(-c3cccc(N(C)C)c3)cc(=O)c2cc1OC was tested, and the TGI (KM20L2 colon) was 5.46 µM, the TGI (LXFL 529 NSCLC) was > 100 µM and the TGI (DMS 273 small cell lung) was > 100 µM. The TGI (DMS 114 small cell lung) was > 49.1 µM, the TGI (M19-MEL melanoma) was > 100 µM and the TGI (HOP-18 NSCLC) was 9.35 µM. For the same molecule, the TGI (SNB-78 CNS) was > 100 µM, the TGI (XF 498 CNS) was > 100 µM and the TGI (DLD-1 colon) was > 100 µM. For the same molecule, the TGI (UO-31 renal) was > 100 µM.

In the case of CNC(=O)CCNC(=O)CCC(=O)OC, the TGI (U251 CNS) is reported as > 100 µM and the TGI (UO-31 renal) is reported as > 100 µM.

For COC12C=CC(CC1)C1C(=O)c3c(C)c(C)n(C)c3C(=O)C12 (centres undefined), the TGI (U251 CNS) was > 100 µM and the TGI (UO-31 renal) was > 100 µM.

For O=C1N=C(c2ccccc2)O/C1=C\c1ccccc1, the TGI (U251 CNS) was > 100 µM and the TGI (UO-31 renal) was > 100 µM.

With CC1C[C@]2(C)C(=S)Nc3ccccc3[C@@H]2Nc2ccccc21 (some centres undefined) the TGI (UO-31 renal) was 32.8 µM.

With COc1ccc(OC)c2nc3c(C(=O)NCCN(C)C)cccc3nc12 the TGI (U251 CNS) was 28.6 µM and the TGI (UO-31 renal) was > 84.7 µM.

In the case of O=C1CCCc2cc3c(cc21)CCC3C(=O)O (centres undefined), the TGI (U251 CNS) is reported as > 100 µM and the TGI (UO-31 renal) is reported as > 100 µM.

In the case of Cc1ccc(S(=O)(=O)NNC(=S)Nc2cccc3ccccc23)cc1, the TGI (U251 CNS) is reported as > 100 µM and the TGI (UO-31 renal) is reported as > 100 µM.

With CNC(=O)c1n[nH][nH]c1=O the TGI (U251 CNS) was > 100 µM and the TGI (UO-31 renal) was > 100 µM.

With COC1OC(CO)C(O)C(OC(=O)c2cc(O)c(O)c(O)c2)C1OC(=O)c1cc(O)c(O)c(O)c1 (centres undefined) the TGI (U251 CNS) was > 100 µM and the TGI (UO-31 renal) was > 100 µM.

With NC1=NC(OCC2(CO)CCC2)C=C(NCC2(CO)CCC2)N1 (centres undefined) the TGI (U251 CNS) was > 100 µM and the TGI (UO-31 renal) was > 100 µM.

In the case of CC1(C)OCC(C2OC(N3O[C@H](CI)C[C@@H]3c3ccccc3)C3OC(C)(C)OC23)O1 (some centres undefined), the TGI (U251 CNS) is reported as > 100 µM and the TGI (UO-31 renal) is reported as > 100 µM.

CN(C)CCO/N=C1/C=C2CC[C@H]3[C@@H]4CC[C@H](O)[C@@]4(C)CC[C@@H]3[C@@]2(C)CC1 gave a TGI (U251 CNS) of 27.5 µM and a TGI (UO-31 renal) of 28.2 µM.

O=C1/C(=C\c2cccc(Oc3ccccc3)c2)SC(c2ccccc2)N1c1ccc(Cl)cc1 (centres undefined) was tested, and the TGI (U251 CNS) was > 100 µM and the TGI (UO-31 renal) was > 100 µM.

For CCOC(=O)c1nc2ccc(C(F)(F)F)cc2nc1Oc1ccc(F)cc1, the TGI (U251 CNS) was > 100 µM and the TGI (UO-31 renal) was > 100 µM.

With COc1ccc2c3ccc4c(c3n(C)c2c1)C(=O)c1ccccc1C4=O the TGI (KM20L2 colon) was > 100 µM, the TGI (LXFL 529 NSCLC) was > 100 µM and the TGI (DMS 273 small cell lung) was > 100 µM. For the same molecule, the TGI (DMS 114 small cell lung) was > 100 µM, the TGI (M19-MEL melanoma) was > 100 µM and the TGI (HOP-18 NSCLC) was > 100 µM. The TGI (SNB-78 CNS) was > 100 µM, the TGI (DLD-1 colon) was > 100 µM and the TGI (U251 CNS) was > 100 µM. The TGI (UO-31 renal) was > 100 µM.

O=c1cc(-c2cccc(OC(F)(F)F)c2)[nH]c2cc3c(cc12)OCO3 showed a TGI (U251 CNS) of 0.188 µM.

For COc1cc(-c2coc3c(OC)c(OC4OC(CO)C(O)C(O)C4O)c(OC)cc3c2=O)cc(OC)c1C (centres undefined), the TGI (U251 CNS) was > 34.6 µM and the TGI (UO-31 renal) was 21 µM.

CC(=O)CCC[C@@H](C)[C@@H]1O[C@H]([C@@]2(C)CCC(=O)O2)C[C@H]2C(CSc3ccccc3)C(=O)O[C@@H]12 (some centres undefined) showed a TGI (U251 CNS) of 36.3 µM and a TGI (UO-31 renal) of 31.1 µM.

For Cc1c2c(n(CCc3ccccc3)c1C)NN=C(C#N)S2(=O)=O, the TGI (U251 CNS) was > 100 µM and the TGI (UO-31 renal) was > 100 µM.

In the case of CC1=NN(C(=O)Cc2ccccc2)C(=O)/C1=C\C=C\c1ccccc1, the TGI (DMS 273 small cell lung) is reported as > 100 µM, the TGI (HOP-18 NSCLC) is reported as > 100 µM and the TGI (SNB-78 CNS) is reported as > 100 µM. The TGI (XF 498 CNS) was > 100 µM, the TGI (DLD-1 colon) was > 100 µM and the TGI (UO-31 renal) was > 100 µM.

Molecule CC(=O)O[C@H]1C(=O)[C@@]2(C)[C@H]([C@H](OC(=O)C3CCCCC3)[C@]3(O)C[C@H](OC(=O)[C@H](O)[C@@H](NC(=O)C4CCCCC4)C4CCCCC4)C(C)=C1C3(C)C)[C@]1(OC(C)=O)CO[C@@H]1C[C@@H]2O has a TGI (U251 CNS) of 1.66 µM and a TGI (UO-31 renal) of 6.23 µM.

Cc1cc2oc(=O)[nH]c(=S)c2c(C)c1C was tested, and the TGI (KM20L2 colon) was > 100 µM, the TGI (LXFL 529 NSCLC) was > 100 µM and the TGI (DMS 273 small cell lung) was > 100 µM. The TGI (DMS 114 small cell lung) was > 100 µM, the TGI (M19-MEL melanoma) was > 100 µM and the TGI (HOP-18 NSCLC) was > 100 µM. The TGI (XF 498 CNS) was > 100 µM, the TGI (U251 CNS) was > 100 µM and the TGI (UO-31 renal) was > 100 µM.

For COc1ccc(C2C(Cl)C(=O)N2NC(=O)Cc2ccccc2)cc1 (centres undefined), the TGI (KM20L2 colon) was > 100 µM, the TGI (LXFL 529 NSCLC) was > 100 µM and the TGI (DMS 273 small cell lung) was > 100 µM. The TGI (M19-MEL melanoma) was > 100 µM, the TGI (HOP-18 NSCLC) was > 100 µM and the TGI (SNB-78 CNS) was > 100 µM. The TGI (XF 498 CNS) was > 100 µM, the TGI (DLD-1 colon) was > 100 µM and the TGI (U251 CNS) was > 100 µM. The TGI (UO-31 renal) was > 100 µM.

With C=C[C@@]1(C)CC(=O)[C@]2(O)[C@@]3(C)[C@@H](OC(C)=O)CCC(C)(C)[C@@H]3[C@H](OC(C)=O)[C@H](OC(C)=O)[C@@]2(C)O1 the TGI (U251 CNS) was > 100 µM and the TGI (UO-31 renal) was > 100 µM.

In the case of CC1(O)/C(=N/O)CC2CC1C2(C)C (centres undefined), the TGI (U251 CNS) is reported as > 100 µM and the TGI (UO-31 renal) is reported as > 100 µM.
